Assay [1] has as its target T1, CFTR ΔF508 (Homo sapiens, UniProt P13569, DEL508-508).
T1 construct: bronchial epithelial cells isolated from CF patients homozygous for the CFTR ΔF508 mutation; McGill University; Asterand; University of North Carolina hAEC-CF; host or cells: primary human bronchial epithelial cells from CF patients homozygous for ΔF508
The experiment in a line: Acute TECC assay on primary bronchial epithelial cells, with and without co-corrector. As to conditions: normalized to DMSO and positive control; for % Activity at 3 μM with co-corrector (Ieq): bronchial epithelial cells from CF patients homozygous for CFTR ΔF508, 3 μM test compound for 24 h; for % Activity at 10 μM (Ieq*): bronchial epithelial cells from CF patients homozygous for CFTR ΔF508, 10 μM test compound for 24 h, without co-corrector, Ieq based on the maximum current. It is filed as cell-based. As to the method:
Primary Bronchial Epithelial Cells Protocol
The TECC (Tranepithelial Clamp Circuit, EP-design) assay measures the functionality of the cystic fibrosis Transmembrane Conductance regulator (CFTR) by measuring the short circuit current (Isc) generated over the basolateral and apical membrane of lung epithelial cells. In TECC the transepithelial potential PD and transepithelial resistance (Rt)) are measured in an open circuit and transformed to Ieq using Ohm's law. 24 Wells can be measured simultaneously allowing a higher throughput compared to Ussing chambers.
For this purpose, bronchial epithelial cells isolated from CF patients homozygous for the CFTR ΔF508 mutation (hAEC-CF, Epithelix, Geneva, Switzerland; McGill University, Montreal, Qc; Asterand, Detroit, Mich.; University of North Carolina, Chapel Hill, N.C.) are plated on type IV collagen-coated Transwell® supports (Costar). Human airway epithelia are generated by provision of an air-liquid interface for 21 days to form well-differentiated polarized cultures that resemble in vivo pseudo-stratified ciliated epithelium (Fulcher, M. L., Gabriel, S., Burns, K. A., Yankaskas, J. R., Randell, S. H., 2005. Well-differentiated human airway epithelial cell cultures. Methods Mol. Med. 107, 183-206). The differentiated cells are treated with test corrector compound(s) (corrector alone or in combination with co-corrector, 4-[(2R,4R)-4-({[1-(2,2-difluoro-1,3-benzodioxol-5-yl)cyclopropyl]carbonyl}amino)-7-methoxy-3,4-dihydro-2H-chromen-2-yl]benzoic acid (G924806/A-1618261) (“acute”) or test corrector compounds, co-corrector and potentiator, N-(3-carbamoyl-5,5,7,7-tetramethyl-4,7-dihydro-5H-thieno[2,3-c]pyran-2-yl)-1H-pyrazole-5-carboxamide GLPG1837, (“chronic”) for 24 hours basolaterally to allow sufficient expression of properly folded CFTR protein on the membrane. All compound plates contained negative controls (DMSO) and positive controls (0.15 μM, 4-[(2R,4R)-4-({[1-(2,2-difluoro-1,3-benzodioxol-5-yl)cyclopropyl]carbonyl}amino)-7-(difluoromethoxy)-3,4-dihydro-2H-chromen-2-yl]benzoic acid).
For electrophysiological recording of the “acute” experiments, the human airway epithelia are mounted in the TECC heating plate and kept at 37° C. The epithelia are bathed in a NaCl-Ringer solution (120 mM NaCl, 25 mM NaHCO3, 1.2 mM CaCl2, 1.2 mM MgCl2, 0.8 mM KH2PO4, 0.8 mM K2HPO4, pH 7.4, 5 mM glucose) on both the basolateral and apical sides. Apical amiloride is used to inhibit the endogenous epithelial sodium channel (ENaC) currents while forskolin is applied on both apical and basolateral side to stimulate CFTR. CFTR activity is measured by addition of forskolin followed by addition of a potentiator, N-(3-carbamoyl-5,5,7,7-tetramethyl-4,7-dihydro-5H-thieno[2,3-c]pyran-2-yl)-1H-pyrazole-5-carboxamide, on both sides. Measurements are done during a 20 minute timeframe with recordings every 2 minutes. The increase in Ieq is used as a measure for the increased CFTR activity, EC50 values can be generated by measuring impact of different concentrations of compound on Ieq on primary cells, for this purpose each transwell is treated with a different compound concentration for 24 hours. Inhibitor-172, an inhibitor specific for CFTR, is used to test the specificity of the tested compounds. Raw data were normalized to percentage activity values using the equation: 100×(Sample−Negative control)/(Positive control−Negative Control).

Assay [2] has as its target T1, CFTR ΔF508. The experiment in a line: Chronic TECC assay on primary bronchial epithelial cells (corrector, co-corrector and potentiator). It is filed as cell-based. As to conditions: chronic TECC, with co-corrector and potentiator, 24 hours. The essentials: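 Differentiated airway epithelia from CFTR ΔF508-homozygous CF patients (21 days air-liquid interface) were treated basolaterally for 24 h with corrector plus co-corrector and potentiator; compounds were re-added before TECC recording at 37 °C in NaCl-Ringer, pH 7.4. Forskolin-stimulated Ieq increase after apical amiloride, normalized to DMSO and positive controls; EC50 from concentration series.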

Setting [3] is: Ieq = calculations based on the maximum current.
Setting [4] is: Ieq = calculations based on the maximum current, read-out: EC50 (nM) (Ieq).
The mark [5] stands for this setting: AUC = full area under the curve upon forskolin stimulation.
The mark [6] stands for this setting: AUC = full area under the curve upon forskolin stimulation, read-out: EC50 (nM) (AUC).

The text below walks through data of patent US9796711B2, “Substituted pyrazolo[3,4-b]pyridin-6-carboxylic acids and method of use” (AbbVie S.àr.l., priority 2015, dated 2017).

Where two headings read alike, the source gives them in different places.

T1 sequence (P13569 with tags, fused parts or gaps DEL508-508): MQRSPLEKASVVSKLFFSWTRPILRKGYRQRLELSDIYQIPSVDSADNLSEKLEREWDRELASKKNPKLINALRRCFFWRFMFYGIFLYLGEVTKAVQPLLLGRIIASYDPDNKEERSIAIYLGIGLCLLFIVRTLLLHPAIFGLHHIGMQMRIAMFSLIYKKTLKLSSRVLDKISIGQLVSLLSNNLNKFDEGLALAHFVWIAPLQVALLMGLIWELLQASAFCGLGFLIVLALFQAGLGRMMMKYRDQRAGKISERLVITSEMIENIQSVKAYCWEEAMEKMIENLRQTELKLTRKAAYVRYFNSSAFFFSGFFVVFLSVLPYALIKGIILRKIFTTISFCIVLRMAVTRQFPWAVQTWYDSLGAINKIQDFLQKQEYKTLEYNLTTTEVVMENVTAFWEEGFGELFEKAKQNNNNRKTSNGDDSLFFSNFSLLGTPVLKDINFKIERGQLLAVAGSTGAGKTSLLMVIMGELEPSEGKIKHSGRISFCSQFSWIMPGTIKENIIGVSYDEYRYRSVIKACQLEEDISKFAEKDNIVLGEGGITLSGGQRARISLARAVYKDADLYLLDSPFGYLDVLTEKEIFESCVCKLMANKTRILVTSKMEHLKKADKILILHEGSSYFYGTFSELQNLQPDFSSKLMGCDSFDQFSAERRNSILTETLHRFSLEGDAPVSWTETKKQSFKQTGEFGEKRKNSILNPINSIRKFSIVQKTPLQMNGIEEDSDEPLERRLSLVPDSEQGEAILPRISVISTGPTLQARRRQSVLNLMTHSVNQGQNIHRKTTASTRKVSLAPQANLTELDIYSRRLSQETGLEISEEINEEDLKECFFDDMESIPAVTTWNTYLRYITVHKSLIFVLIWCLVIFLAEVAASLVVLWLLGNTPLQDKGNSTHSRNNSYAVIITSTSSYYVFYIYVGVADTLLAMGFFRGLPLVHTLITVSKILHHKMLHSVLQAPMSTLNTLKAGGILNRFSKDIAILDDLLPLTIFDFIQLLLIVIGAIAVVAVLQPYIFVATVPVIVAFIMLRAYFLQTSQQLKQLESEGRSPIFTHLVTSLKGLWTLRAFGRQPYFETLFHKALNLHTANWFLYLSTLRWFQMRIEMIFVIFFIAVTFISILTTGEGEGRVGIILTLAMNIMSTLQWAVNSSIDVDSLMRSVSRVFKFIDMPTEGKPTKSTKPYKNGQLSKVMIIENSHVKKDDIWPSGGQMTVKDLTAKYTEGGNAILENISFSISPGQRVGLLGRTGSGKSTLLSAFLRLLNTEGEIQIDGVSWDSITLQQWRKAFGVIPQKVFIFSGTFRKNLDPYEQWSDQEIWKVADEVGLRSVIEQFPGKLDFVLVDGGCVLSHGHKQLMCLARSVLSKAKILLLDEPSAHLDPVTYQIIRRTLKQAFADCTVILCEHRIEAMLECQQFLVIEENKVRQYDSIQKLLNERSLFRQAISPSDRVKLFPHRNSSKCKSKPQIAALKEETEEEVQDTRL

Consider `CC(C)c1nn(C2CCCCC2)c2nc(C(=O)O)cc(-c3ccc(N(C)C4CCOCC4)nc3)c12` [compound 169, 1-cyclohexyl-4-{6-[methyl(oxan-4-yl)amino]pyridin-3-yl}-3-(propan-2-yl)-1H-pyrazolo[3,4-b]pyridine-6-carboxylic acid], for which the “% Activity at 3 μM with co-corrector (Ieq)” value (from here on “% Activity at 3 μM … (Ieq)”) at CFTR ΔF508 [1] amounted to 279.1%.
As for `CC(C)c1nn(-c2cccc(N3CCCC3)c2)c2nc(C(=O)O)cc(-c3ccc(N4CCC(C#N)CC4)nc3)c12` [compound 222, 4-[6-(4-cyanopiperidin-1-yl)pyridin-3-yl]-3-(propan-2-yl)-1-[3-(pyrrolidin-1-yl)phenyl]-1H-pyrazolo[3,4-b]pyridine-6-carboxylic acid], the “% Activity at 3 μM … (Ieq)” value on CFTR ΔF508 [1] is on record as 221.3%.
Consider `CC(C)c1nn(-c2cccc(N3CCC3)c2)c2nc(C(=O)O)cc(-c3ccc(N4CCOCC4)cc3)c12` [compound 151, 1-[3-(azetidin-1-yl)phenyl]-4-[4-(morpholin-4-yl)phenyl]-3-(propan-2-yl)-1H-pyrazolo[3,4-b]pyridine-6-carboxylic acid], for which the “% Activity at 10 μM (Ieq*)” value at CFTR ΔF508 [1] amounted to 100.6%.
For orientation: EC50 means the concentration giving half of the maximal effect. Turning to `Cc1cccc(-n2nc(C(C)C)c3c(N4CCC(CO)CC4)cc(C(=O)O)nc32)c1` [compound 213, 4-[4-(hydroxymethyl)piperidin-1-yl]-1-(3-methylphenyl)-3-(propan-2-yl)-1H-pyrazolo[3,4-b]pyridine-6-carboxylic acid], the “% Activity at 1 μM (Ieq*)” value at CFTR ΔF508 [2] (setting [3]) is given as 390%. Moreover, the half-maximal effective concentration (EC50) on CFTR ΔF508 [2] (setting [4]) was more than 300 nM. Besides, the “% Activity at 3 μM … (Ieq)” value on CFTR ΔF508 [1] is 199.4%.
Turning to `Cc1nn(-c2ccccc2)c2nc(C(=O)O)cc(N3CCCCC3)c12` [compound 123, 3-methyl-1-phenyl-4-(piperidin-1-yl)-1H-pyrazolo[3,4-b]pyridine-6-carboxylic acid], the “% Activity at 10 μM (Ieq*)” value on CFTR ΔF508 [1] is 100.6%.
`CC(C)c1nn(-c2cccc(N3CCOCC3)n2)c2nc(C(=O)O)cc(-c3ccc(N4CCOCC4)cc3)c12` [compound 244, 4-[4-(morpholin-4-yl)phenyl]-1-[6-(morpholin-4-yl)pyridin-2-yl]-3-(propan-2-yl)-1H-pyrazolo[3,4-b]pyridine-6-carboxylic acid]: the “% Activity at 1 μM (Ieq*)” value at CFTR ΔF508 [2] (setting [3]) is recorded as 210%. Further, on CFTR ΔF508 [2] (setting [4]), the EC50 is less than 30 nM.
For the compound `O=C(O)c1cc(N2CCC(N3CCC(F)CC3)CC2)c2c(C3CCC3)nn(-c3ccc(F)cc3)c2n1` [compound 849, 3-cyclobutyl-4-(4-fluoro[1,4′-bipiperidin]-1′-yl)-1-(4-fluorophenyl)-1H-pyrazolo[3,4-b]pyridine-6-carboxylic acid], the “% Activity at 1 μM (AUC**)” value at CFTR ΔF508 [2] (setting [5]) is listed as 256.6667%. For the same compound, the 50% effective concentration (EC50) on CFTR ΔF508 [2] (setting [6]) worked out at 15.6 nM.
On to `O=C(O)c1cc(N2CCC(N3CCC(O)CC3)CC2)c2c(C3CCC3)nn(-c3ccc(F)cc3)c2n1` [compound 898, 3-cyclobutyl-1-(4-fluorophenyl)-4-(4-hydroxy[1,4′-bipiperidin]-1′-yl)-1H-pyrazolo[3,4-b]pyridine-6-carboxylic acid], for which, at CFTR ΔF508 [2] (setting [5]), the “% Activity at 3 μM (AUC)” value amounted to 150.7853%. For the same compound, at CFTR ΔF508 [2] (setting [6]), the concentration giving a half-maximal response (EC50) was 2640 nM.
In the case of `O=C(O)c1cc(N2CCC(N3CCN(C4CC4)CC3)CC2)c2c(C3CCC3)nn(-c3ccc(F)cc3)c2n1` [compound 886, 3-cyclobutyl-4-[4-(4-cyclopropylpiperazin-1-yl)piperidin-1-yl]-1-(4-fluorophenyl)-1H-pyrazolo[3,4-b]pyridine-6-carboxylic acid], at CFTR ΔF508 [2] (setting [5]), the “% Activity at 1 μM (AUC**)” value came to 282.5409%.
`CN1CCC2(CC1)CCN(c1cc(C(=O)O)nc3c1c(C1CCC1)nn3-c1ccccc1)CC2` [compound 699, 3-cyclobutyl-4-(9-methyl-3,9-diazaspiro[5.5]undecan-3-yl)-1-phenyl-1H-pyrazolo[3,4-b]pyridine-6-carboxylic acid]: the EC50 at CFTR ΔF508 [2] (setting [6]) was 162 nM.
`O=C(O)c1cc(N2CCC3(CC2)CCN(C2CC2)CC3)c2c(C3CCC3)nn(-c3ccc(F)cc3)c2n1` [compound 887, 3-cyclobutyl-4-(9-cyclopropyl-3,9-diazaspiro[5.5]undecan-3-yl)-1-(4-fluorophenyl)-1H-pyrazolo[3,4-b]pyridine-6-carboxylic acid]: the “% Activity at 1 μM (AUC**)” value on CFTR ΔF508 [2] (setting [5]) amounted to 273.3871%. Further, at CFTR ΔF508 [2] (setting [6]), the half-maximal effective concentration (EC50) was found to be 1340 nM.
On the same counts, the results for `CC1CCN(CCC2CCN(c3cc(C(=O)O)nc4c3c(C3CCC3)nn4-c3ccccc3)CC2)CC1` [compound 687, 3-cyclobutyl-4-{4-[2-(4-methylpiperidin-1-yl)ethyl]piperidin-1-yl}-1-phenyl-1H-pyrazolo[3,4-b]pyridine-6-carboxylic acid] are 263.3333% and 53.5 nM.
Taken in the same sequence, the figures for `O=C(O)c1cc(N2CCC(N3CCN(C4CC4)CC3)CC2)c2c(C3CCC3)nn(-c3ccccc3)c2n1` [compound 738, 3-cyclobutyl-4-[4-(4-cyclopropylpiperazin-1-yl)piperidin-1-yl]-1-phenyl-1H-pyrazolo[3,4-b]pyridine-6-carboxylic acid] were 230% and 23 nM.
In the case of `N#CC1CCN(c2ccc(-c3cc(C(=O)O)nc4c3c(C3CCC3)nn4C3CCCCC3)cn2)CC1` [compound 220, 4-[6-(4-cyanopiperidin-1-yl)pyridin-3-yl]-3-cyclobutyl-1-cyclohexyl-1H-pyrazolo[3,4-b]pyridine-6-carboxylic acid], at CFTR ΔF508 [2] (setting [3]), the “% Activity at 1 μM (Ieq*)” value is listed as 720%. For the same compound, the EC50 on CFTR ΔF508 [2] (setting [4]) is 120 nM. Besides, the “% Activity at 3 μM … (Ieq)” value on CFTR ΔF508 [1] amounted to 122.9%.
Regarding `CC(C)c1nn(-c2ccc(F)cc2)c2nc(C(=O)O)cc(N3CCC(C(C)(C)O)CC3)c12` [compound 656, 1-(4-fluorophenyl)-4-[4-(2-hydroxypropan-2-yl)piperidin-1-yl]-3-(propan-2-yl)-1H-pyrazolo[3,4-b]pyridine-6-carboxylic acid], the EC50 at CFTR ΔF508 [2] (setting [6]) amounted to 48 nM.
For `COC1CCN(C2CCN(c3cc(C(=O)O)nc4c3c(C3CCC3)nn4-c3ccc(F)cc3)CC2)CC1` [compound 892, 3-cyclobutyl-1-(4-fluorophenyl)-4-(4-methoxy[1,4′-bipiperidin]-1′-yl)-1H-pyrazolo[3,4-b]pyridine-6-carboxylic acid], the “% Activity at 1 μM (AUC**)” value on CFTR ΔF508 [2] (setting [5]) amounted to 188.3291%. For the same compound, the EC50 at CFTR ΔF508 [2] (setting [6]) came out at 900 nM.
As for `O=C(O)c1cc(N2CCC(CN3CCCC3)CC2)c2c(C3CCC3)nn(-c3ccccc3)c2n1` [compound 557, 3-cyclobutyl-1-phenyl-4-{4-[(pyrrolidin-1-yl)methyl]piperidin-1-yl}-1H-pyrazolo[3,4-b]pyridine-6-carboxylic acid], on CFTR ΔF508 [2] (setting [5]), the “% Activity at 1 μM (AUC**)” value is 262% and the “% Activity at 3 μM (AUC)” value was found to be 384%.
`CC(C)c1nn(-c2cccc(N3CCOCC3)c2)c2nc(C(=O)O)cc(-c3ccc(N(C)C)nc3)c12` [compound 89, 4-[6-(dimethylamino)pyridin-3-yl]-1-[3-(morpholin-4-yl)phenyl]-3-(propan-2-yl)-1H-pyrazolo[3,4-b]pyridine-6-carboxylic acid]: the “% Activity at 10 μM (Ieq*)” value on CFTR ΔF508 [1] was determined as 147.6%.
